This note sets out measurements from US20240109839A1, “NOVEL COMPOUND EXHIBITING ANTI-INFLAMMATORY ACTIVITY AS P38 MAP KINASE INHIBITOR” (PRAZERTHERAPEUTICS INC., priority 2021, published 2024).

Molecules are shown by their SMILES.

One assay concerns the target p38 alpha (Homo sapiens, UniProt Q16539). Nature of the assay: Evaluation of inhibitory ability of p38a mitogen-activated protein kinase (MAPK). The class given is biochemical. To be noted: Serine/Threonine 15 peptide, 1 hour at room temperature, read at 445 nm and 520 nm. The procedure:
To identify the ability to inhibit p38 MAPK, compounds 1 to 15 were diluted to identify the inhibitory effect according to concentration. Briefly, the compounds were diluted at concentrations of […], respectively, and then a peptide/kinase mixture (final 7.07-28.3 ng p38 alpha, 2 μM Serine/Threonine 15, 50 mM HEPES pH 7.0, 0.01% NaN3) and ATP solution were added. After carrying out a reaction at room temperature for 1 hour, a development reagent was added, and a reaction was performed again at room temperature for 1 hour.

In another assay the target is T1, p-p38 MAPK (Mus musculus, UniProt P47811).
T1 construct: endogenous in cells; host or cells: Raw264.7
Nature of the assay: Evaluation of p38 MAPK protein inhibitory ability in cells (p-p38 immunoblot). The class given is cell-based. To be noted: 10 μM compound, 24 hours; for p-p38 inhibition %: Raw264.7 cells, 10 µM; for inhibition at 10 µM: RAW264.7, Raw264.7 cells. On the procedure: To identify inhibition of p-p38 MAPK, inhibition of p38 MAPK was identified after each compound was treated to Raw264.7 cells obtained by transforming macrophages into cancerous cells that cause inflammation according to p-p38 MAPK activity. Briefly, Raw264.7 cells were cultured in Dulbecco's modified Eagle Medium supplemented with 10% fetal bovine serum and penicillin/streptomycin (100 U/ml). Raw 264.7 cells were treated with 10 μM of compounds 1 to 15 according to the present disclosure in a petri dish respectively, followed by culture in a CO2 incubator for 24 hours. The effect of each compound on inhibition of p-p38 MAPK in cells was identified through protein immunoblot.
After completion of cell culture under the experimental conditions, washing was performed with cold phosphate buffered saline (PBS). The cells were then collected and centrifuged at 1200 rpm for 3 minutes. The precipitate was dissolved in cells with 2× sample buffer (1M Tris-HCl pH 6.8, 50% glycerol, 10% SDS, 2-mercaptoethanol, 1% bromophenol blue) and boiled at 100° C. for 10 minutes. The prepared protein samples were subjected to sodium dodecyl sulfate poly acrylamide gel electrophoresis and then transferred to PVDF membrane (Millipore). Blocking was performed in a 5% bovine serum albumin (BSA, RMbio) solution for a specific coupling reaction between the protein on the PVDF membrane and antibody. The BSA solution was then discarded, and the membrane was washed with PBS-T (0.5% tween 20 in PBS). The coupling reaction between the protein on the membrane and antibody was carried out overnight at 4° C., followed by washing again with PBS-T. Finally, a secondary antibody (Cell signaling Technology) conjugated with horseradish peroxidase (HRP) was diluted in PBS-T, and a reaction was carried out at room temperature for 2 hours. Luminata Forte HRP substrate (Millipore) was used to determine the protein amount on the membrane.

The test system of the next assay is Raw264.7 cells. Nature of the assay: Evaluation of nitric oxide inhibitory ability according to cellular inflammatory response (Griess reagent). In kind it is cell-based. To be noted: 10 μM compound, 550 nm; for NO inhibition (%): 24 hours, 10 µM; for inhibition at 10 µM: Mus musculus, RAW264.7, 24 h, read-out: NO inhibition (%). On the procedure: In order to identify an inflammatory inhibitory effect upon inhibition of p-p38 MAPK, each compound was treated to Raw264.7 cells obtained by transforming macrophages into cancerous cells involved in the inflammatory response, so as to identify inhibition of inflammation due to inhibition of p38 MAPK. Briefly, Raw264.7 cells were cultured in Dulbecco's Modified Eagle Medium supplemented with 10% fetal bovine serum and penicillin/streptomycin (100 U/ml). Raw 264.7 cells were treated with 10 μM of compounds 1 to 15 according to the present disclosure in a petri dish respectively, followed by culture in a CO2 incubator for 24 hours.
After completion of cell culture under experimental conditions, the supernatant was obtained and centrifuged at 1200 rpm for 3 minutes. The centrifuged supernatant was mixed with Griess reagent (1% sulfanilamide, 0.1% N-(1-naphthyl)ethylenediamine dihydrochloride, 5% phosphoric acid) at 1:1 and then a reaction was performed for 10 minutes under shaded condition. The concentration of nitric oxide was determined at a wavelength of 550 nm.

Chain of p38 alpha (Q16539 whole entry): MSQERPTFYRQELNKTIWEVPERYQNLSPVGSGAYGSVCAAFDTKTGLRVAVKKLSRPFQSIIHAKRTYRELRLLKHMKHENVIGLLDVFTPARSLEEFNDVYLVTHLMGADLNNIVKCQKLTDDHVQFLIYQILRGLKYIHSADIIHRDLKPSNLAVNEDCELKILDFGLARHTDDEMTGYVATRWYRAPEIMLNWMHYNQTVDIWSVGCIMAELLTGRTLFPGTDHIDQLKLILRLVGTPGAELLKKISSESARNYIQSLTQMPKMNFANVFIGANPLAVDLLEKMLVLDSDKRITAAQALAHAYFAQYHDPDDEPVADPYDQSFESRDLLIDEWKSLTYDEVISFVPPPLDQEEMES
T1 sequence (P47811 whole entry): as the sequence (Q16539 whole entry) above, with L48H, T263A counted along it

For the molecule `Cc1ccc(C(=O)NC2CC2)cc1-c1ccc(C(=O)C2CCC(OCCO)C2)cc1` (stereo not drawn) [11 (anti isomer), N-cyclopropyl-4′-(3-(2-hydroxyethoxy)cyclopentanecarbonyl)-6-methyl-[1,1′-biphenyl]-3-carboxamide], the IC50 against p38 alpha amounted to 58.4 nM. Moreover, the p-p38 inhibition % at p-p38 MAPK came to 64.1%. Also, the “NO inhibition (%)” value in the assay on Raw264.7 cells is listed as 11.0%.

`Cc1ccc(C(=O)NC2CC2)cc1-c1ccc(C(=O)C2CCC(OCCO)C2)cc1` (stereo not drawn) [11 (syn isomer), N-cyclopropyl-4′-(3-(2-hydroxyethoxy)cyclopentanecarbonyl)-6-methyl-[1,1′-biphenyl]-3-carboxamide] yielded an IC50 on p38 alpha of 27.8 nM. In addition, the p-p38 inhibition % on p-p38 MAPK was 41.9%. Further, in the assay on Raw264.7 cells, the “NO inhibition (%)” value was determined as 30.6%.

Take `Cc1ccc(C(=O)NC2CC2)cc1-c1ccc(C(=O)C(C)(C)O)cc1` [Compound 1, N-cyclopropyl-4′-(2-hydroxy-2-methylpropanoyl)-6-methyl-[1,1′-biphenyl]-3-carboxamide]: at p38 alpha, half-maximal inhibition (IC50) was put at 71.8 nM.

Consider `COCCC(C)C(=O)c1ccc(-c2cc(C(=O)NC3CC3)ccc2C)cc1` (stereo not drawn) [Compound 2, N-cyclopropyl-4′-(4-methoxy-2-methylbutanoyl)-6-methyl-[1,1′-biphenyl]-3-carboxamide], for which, at p38 alpha, the IC50 amounted to 21.9 nM.

In turn, `COCCCC(C)C(=O)c1ccc(-c2cc(C(=O)NC3CC3)ccc2C)cc1` (stereo not drawn) [Compound 3, N-cyclopropyl-4′-(5-methoxy-2-methylpentanoyl)-6-methyl-[1,1′-biphenyl]-3-carboxamide] returned an IC50 on p38 alpha of 50.7 nM.

On p38 alpha, `Cc1ccc(C(=O)NC2CC2)cc1-c1ccc(C(=O)C2CC2)cc1` [Compound 4, 4′-(cyclopropanecarbonyl)-N-cyclopropyl-6-methyl-[1,1′-biphenyl]-3-carboxamide] displayed an IC50 of 39.2 nM. Further, the inhibition at 10 µM worked out at 20.9% against p-p38 MAPK and 26% in the assay with Raw264.7 cells.

Consider `Cc1ccc(C(=O)NC2CC2)cc1-c1ccc(C(=O)C2CCC2)cc1` [Compound 5, 4′-(cyclobutanecarbonyl)-N-cyclopropyl-6-methyl-[1,1′-biphenyl]-3-carboxamide], for which the IC50 at p38 alpha came out at 86.7 nM. Moreover, the values for the inhibition at 10 µM at p-p38 MAPK and in the assay on Raw264.7 cells were 80.4% and 11.9%, respectively.

Regarding `Cc1ccc(C(=O)NC2CC2)cc1-c1ccc(C(=O)C2CCCC2)cc1` [Compound 6, 4′-(cyclopentanecarbonyl)-N-cyclopropyl-6-methyl-[1,1′-biphenyl]-3-carboxamide], the IC50 against p38 alpha was found to be 128 nM. The inhibition at 10 µM on p-p38 MAPK is 76.2%; in the assay with Raw264.7 cells, 24%.

In turn, `Cc1ccc(C(=O)NC2CC2)cc1-c1ccc(C(=O)C2CCCCC2)cc1` [Compound 7, 4′-(cyclohexanecarbonyl)-N-cyclopropyl-6-methyl-[1,1′-biphenyl]-3-carboxamide] showed an IC50 at p38 alpha of 72.6 nM. For the same molecule, the results for the inhibition at 10 µM on p-p38 MAPK and in the assay with Raw264.7 cells were 87.6% and 15.5%, respectively.

`Cc1ccc(C(=O)NC2CC2)cc1-c1ccc(C(=O)C2CCCCCC2)cc1` [Compound 8, 4′-(cycloheptanecarbonyl)-N-cyclopropyl-6-methyl-[1,1′-biphenyl]-3-carboxamide] displayed an IC50 at p38 alpha of 46.6 nM. Also, the inhibition at 10 µM at p-p38 MAPK was 83%; in the assay with Raw264.7 cells, 43.6%.

On p38 alpha, `Cc1ccc(C(=O)NC2CC2)cc1-c1ccc(C(=O)C2CC=CC2)cc1` [Compound 9, 4′-(cyclopent-3-enecarbonyl)-N-cyclopropyl-6-methyl-[1,1′-biphenyl]-3-carboxamide] returned an IC50 of 46.5 nM. For the same molecule, the inhibition at 10 µM came out at 81.7% on p-p38 MAPK and 21.1% in the assay on Raw264.7 cells.

Take `Cc1ccc(C(=O)NC2CC2)cc1-c1ccc(C(=O)C2CCC(O)C2)cc1` (stereo not drawn) [Compound 10, N-cyclopropyl-4′-(3-hydroxycyclopentanecarbonyl)-6-methyl-[1,1′-biphenyl]-3-carboxamide]: half-maximal inhibition against p38 alpha (IC50) was put at 22.5 nM. Also, the figures for the inhibition at 10 µM on p-p38 MAPK and with Raw264.7 cells were 44.7% and 11.1%, respectively.

On to `COCCOC1CCC(C(=O)c2ccc(-c3cc(C(=O)NC4CC4)ccc3C)cc2)C1` (stereo not drawn) [Compound 12, N-cyclopropyl-4′-(3-(2-methoxyethoxy)cyclopentane-1-carbonyl)-6-methyl-[1,1′-biphenyl]-3-carboxamide], for which the IC50 at p38 alpha turned out to be 21.8 nM.

`Cc1ccc(C(=O)NC2CC2)cc1-c1ccc(C(=O)C(C)O)cc1` (stereo not drawn) [Compound 13, N-cyclopropyl-4′-(2-hydroxypropanoyl)-6-methyl-[1,1′-biphenyl]-3-carboxamide]: at p38 alpha, the IC50 is 50.8 nM.

At p38 alpha, `Cc1ccc(C(=O)NC2CC2)cc1-c1ccc(C(=O)C2CCNC2)cc1` (stereo not drawn) [Compound 14, N-cyclopropyl-6-methyl-4′-(pyrrolidine-3-carbonyl)-[1,1′-biphenyl]-3-carboxamide] returned an IC50 of 126 nM. Further, the inhibition at 10 µM at p-p38 MAPK was 88.6%.

With `COCCN1CCC(C(=O)c2ccc(-c3cc(C(=O)NC4CC4)ccc3C)cc2)C1` (stereo not drawn) [Compound 15, N-cyclopropyl-4′-(1-(2-methoxyethyl)pyrrolidine-3-carbonyl)-6-methyl-[1,1′-biphenyl]-3-carboxamide], on p38 alpha, the IC50 was determined as 158 nM. At p-p38 MAPK, this molecule yielded an inhibition at 10 µM of 79.2%.
